Data from PubChem BioAssay (NCI).
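Results reflect a 48-hour exposure of cells in 96-well plates to compound at five concentrations. The concentration for 50% growth inhibition is given as GI50. Definition used: TGI = concentration required for complete inhibition of growth.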

Experiments:
Assay in all cases: NCI tumour cell line growth inhibition, 48 h
[1] = tested on: DLD-1 colon
[2] = tested on: UO-31 renal
[3] = tested on: HOP-18 NSCLC
[4] = tested on: TK-10 renal
[5] = tested on: COLO 205 colon
[6] = tested on: 786-0 renal
[7] = tested on: OVCAR-8 ovarian
[8] = tested on: SNB-75 CNS
[9] = tested on: SW-620 colon
[10] = tested on: OVCAR-5 ovarian
[11] = tested on: K-562 leukemia
[12] = tested on: A498 renal
[13] = tested on: HT29 colon
[14] = tested on: OVCAR-4 ovarian
[15] = tested on: HOP-62 NSCLC
[16] = tested on: SR leukemia
[17] = tested on: M19-MEL melanoma
[18] = tested on: SF-295 CNS
[19] = tested on: HCC-2998 colon
[20] = tested on: HL-60(TB) leukemia
[21] = tested on: U251 CNS
[22] = tested on: SN12C renal
[23] = tested on: OVCAR-3 ovarian
[24] = tested on: ACHN renal
[25] = tested on: HCT-116 colon
[26] = tested on: IGROV1 ovarian
[27] = tested on: LXFL 529 NSCLC
[28] = tested on: HCT-15 colon
[29] = tested on: SF-539 CNS
[30] = tested on: SK-MEL-5 melanoma
[31] = tested on: KM12 colon
[32] = tested on: RXF-631 renal
[33] = tested on: CAKI-1 renal
[34] = tested on: M14 melanoma
[35] = tested on: CCRF-CEM leukemia
[36] = tested on: RPMI-8226 leukemia
[37] = tested on: DMS 273 small cell lung
[38] = tested on: NCI-H460 lung
[39] = tested on: SK-MEL-28 melanoma
[40] = tested on: SF-268 CNS
[41] = tested on: SNB-78 CNS
[42] = tested on: HOP-92 NSCLC
[43] = tested on: MOLT-4 leukemia
[44] = tested on: KM20L2 colon
[45] = tested on: XF 498 CNS
[46] = tested on: A549 NSCLC
[47] = tested on: SK-OV-3 ovarian
[48] = tested on: UACC-62 melanoma
[49] = tested on: RXF 393 renal
[50] = tested on: LOX IMVI melanoma
[51] = tested on: NCI-H226 lung
[52] = tested on: SK-MEL-2 melanoma
[53] = tested on: NCI-H23 lung
[54] = tested on: MALME-3M melanoma
[55] = tested on: EKVX NSCLC
[56] = tested on: UACC-257 melanoma
[57] = tested on: DMS 114 small cell lung
[58] = tested on: P388 leukemia
[59] = tested on: MCF7 breast
[60] = tested on: NCI/ADR-RES ovarian
[61] = tested on: P388/ADR leukemia
[62] = tested on: NCI-H522 lung
[63] = tested on: SNB-19 CNS
[64] = tested on: SN12K1 renal

In the case of `Cc1ccc(/C=N/NS(=O)(=O)c2ccccc2)c(C)c1`, the TGI [1] is reported as over 100 µM, the TGI [2] is reported as over 100 µM and the TGI [3] is reported as over 100 µM. For the same molecule, the TGI [4] was over 100 µM, the TGI [5] was over 100 µM and the TGI [6] was over 100 µM. It also gave a TGI [7] of over 100 µM, a TGI [8] of over 100 µM and a TGI [9] of over 100 µM. For the same molecule, the TGI [10] was over 100 µM, the TGI [11] was over 100 µM and the TGI [12] was over 100 µM. The TGI [13] was over 100 µM, the TGI [14] was over 100 µM and the TGI [15] was over 100 µM. For the same molecule, the TGI [16] was over 100 µM, the TGI [17] was over 100 µM and the TGI [18] was over 100 µM. The TGI [19] was over 100 µM, the TGI [20] was over 100 µM and the TGI [21] was over 100 µM. For the same molecule, the TGI [22] was over 100 µM, the TGI [23] was over 100 µM and the TGI [24] was over 100 µM. It also gave a TGI [25] of over 100 µM, a TGI [26] of over 100 µM and a TGI [27] of over 100 µM. It also gave a TGI [28] of over 100 µM, a TGI [29] of over 100 µM and a TGI [30] of over 100 µM. For the same molecule, the TGI [31] was over 100 µM, the TGI [32] was over 100 µM and the TGI [33] was over 100 µM. For the same molecule, the TGI [34] was over 100 µM, the TGI [35] was over 100 µM and the TGI [36] was over 100 µM. For the same molecule, the TGI [37] was over 100 µM, the TGI [38] was over 100 µM and the TGI [39] was over 100 µM. For the same molecule, the TGI [40] was over 100 µM, the TGI [41] was over 100 µM and the TGI [42] was over 100 µM. The TGI [43] was over 100 µM, the TGI [44] was over 100 µM and the TGI [45] was over 100 µM. For the same molecule, the TGI [46] was over 100 µM, the TGI [47] was over 100 µM and the TGI [48] was over 100 µM. It also gave a TGI [49] of over 100 µM, a TGI [50] of over 100 µM and a TGI [51] of over 100 µM. It also gave a TGI [52] of over 100 µM, a TGI [53] of over 100 µM and a TGI [54] of over 100 µM. The TGI [55] was over 100 µM, the TGI [56] was over 100 µM and the TGI [57] was over 100 µM.

With `CCOC(=O)C(C)N1C(=O)c2ccccc2S1(=O)=O` (stereo unspecified) the TGI [1] was over 100 µM, the TGI [58] was over 100 µM and the TGI [2] was over 100 µM. The TGI [3] was over 100 µM, the TGI [59] was over 100 µM and the TGI [5] was over 100 µM. For the same molecule, the TGI [7] was over 100 µM, the TGI [8] was over 100 µM and the TGI [9] was over 100 µM. For the same molecule, the TGI [10] was over 100 µM, the TGI [60] was over 100 µM and the TGI [11] was over 100 µM. For the same molecule, the GI50 [12] was 29.1 µM, the TGI [12] was over 100 µM and the TGI [13] was over 100 µM. It also gave a TGI [14] of over 100 µM, a TGI [15] of over 100 µM and a TGI [17] of over 100 µM. The TGI [18] was over 100 µM, the TGI [19] was over 100 µM and the TGI [20] was over 100 µM. The TGI [21] was over 100 µM, the TGI [22] was over 100 µM and the TGI [23] was over 100 µM. For the same molecule, the TGI [25] was over 100 µM, the TGI [26] was over 100 µM and the TGI [28] was over 100 µM. The TGI [29] was over 100 µM, the TGI [30] was over 100 µM and the TGI [31] was over 100 µM. The TGI [33] was over 100 µM, the TGI [35] was over 100 µM and the TGI [36] was over 100 µM. The TGI [37] was over 100 µM, the TGI [38] was over 100 µM and the TGI [39] was over 100 µM. It also gave a TGI [40] of over 100 µM, a GI50 [41] of over 100 µM and a TGI [41] of over 100 µM. The TGI [42] was over 100 µM, the TGI [43] was over 100 µM and the TGI [45] was over 100 µM. The TGI [46] was over 100 µM, the TGI [47] was over 100 µM and the TGI [48] was over 100 µM. For the same molecule, the GI50 [49] was over 100 µM, the TGI [49] was over 100 µM and the TGI [61] was over 100 µM. It also gave a TGI [50] of over 100 µM, a TGI [51] of over 100 µM and a TGI [52] of over 100 µM. For the same molecule, the TGI [62] was over 100 µM, the TGI [53] was over 100 µM and the TGI [63] was over 100 µM. The TGI [54] was over 100 µM, the TGI [55] was over 100 µM and the TGI [64] was over 100 µM. The TGI [56] was over 100 µM and the TGI [57] was over 100 µM.
